Test results from ChEMBL document CHEMBL4354801, “Design, Synthesis, and Structure-Activity Relationships of 1,2,3-Triazole Benzenesulfonamides as New Selective Leucine-Zipper and Sterile-α Motif Kinase (ZAK) Inhibitors” (J Med Chem, 2020).
pIC50, pKd: −log10 of the molar value. One block for each molecule: values may come before it.

Columns and labels:
[1] = target: Serine/threonine-protein kinase B-raf (Homo sapiens, UniProt P15056, V600E); assay: Inhibition of recombinant human B-RAF V600E mutant using Ser/Thr3 as substrate after 1 hr by FRET-based Z'-Lyte assay
Sequence of Serine/threonine-protein kinase B-raf (P15056 2-766 V600E limits assumed): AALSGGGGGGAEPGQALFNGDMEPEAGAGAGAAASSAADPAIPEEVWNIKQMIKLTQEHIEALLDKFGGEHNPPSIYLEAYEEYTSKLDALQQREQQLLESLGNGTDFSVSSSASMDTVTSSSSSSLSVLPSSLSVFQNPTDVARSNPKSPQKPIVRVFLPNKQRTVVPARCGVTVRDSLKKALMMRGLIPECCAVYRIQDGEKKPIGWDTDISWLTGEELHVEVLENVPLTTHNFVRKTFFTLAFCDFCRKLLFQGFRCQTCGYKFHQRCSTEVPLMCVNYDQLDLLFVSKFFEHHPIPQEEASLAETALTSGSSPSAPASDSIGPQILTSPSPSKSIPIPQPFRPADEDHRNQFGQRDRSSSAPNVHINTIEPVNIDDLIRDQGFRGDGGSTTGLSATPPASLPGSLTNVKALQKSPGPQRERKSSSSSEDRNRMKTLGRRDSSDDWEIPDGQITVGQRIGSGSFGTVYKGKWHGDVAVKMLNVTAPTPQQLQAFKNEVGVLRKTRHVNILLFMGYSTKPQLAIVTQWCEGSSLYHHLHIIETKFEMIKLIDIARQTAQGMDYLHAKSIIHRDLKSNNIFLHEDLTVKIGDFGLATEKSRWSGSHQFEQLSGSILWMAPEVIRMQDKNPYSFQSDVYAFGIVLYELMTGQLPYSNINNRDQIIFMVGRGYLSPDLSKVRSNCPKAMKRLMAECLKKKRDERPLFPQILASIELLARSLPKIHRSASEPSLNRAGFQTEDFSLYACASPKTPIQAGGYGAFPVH

[2] = target: T1, Mitogen-activated protein kinase kinase kinase 20 (Homo sapiens, UniProt Q9NYL2); assay: Inhibition of N-terminal GST-tagged recombinant human full-length ZAK expressed in baculovirus infected Sf9 insect cells using MBP as substrate after 30 mins by ADP-Glo assay
T1 sequence (Q9NYL2 whole entry): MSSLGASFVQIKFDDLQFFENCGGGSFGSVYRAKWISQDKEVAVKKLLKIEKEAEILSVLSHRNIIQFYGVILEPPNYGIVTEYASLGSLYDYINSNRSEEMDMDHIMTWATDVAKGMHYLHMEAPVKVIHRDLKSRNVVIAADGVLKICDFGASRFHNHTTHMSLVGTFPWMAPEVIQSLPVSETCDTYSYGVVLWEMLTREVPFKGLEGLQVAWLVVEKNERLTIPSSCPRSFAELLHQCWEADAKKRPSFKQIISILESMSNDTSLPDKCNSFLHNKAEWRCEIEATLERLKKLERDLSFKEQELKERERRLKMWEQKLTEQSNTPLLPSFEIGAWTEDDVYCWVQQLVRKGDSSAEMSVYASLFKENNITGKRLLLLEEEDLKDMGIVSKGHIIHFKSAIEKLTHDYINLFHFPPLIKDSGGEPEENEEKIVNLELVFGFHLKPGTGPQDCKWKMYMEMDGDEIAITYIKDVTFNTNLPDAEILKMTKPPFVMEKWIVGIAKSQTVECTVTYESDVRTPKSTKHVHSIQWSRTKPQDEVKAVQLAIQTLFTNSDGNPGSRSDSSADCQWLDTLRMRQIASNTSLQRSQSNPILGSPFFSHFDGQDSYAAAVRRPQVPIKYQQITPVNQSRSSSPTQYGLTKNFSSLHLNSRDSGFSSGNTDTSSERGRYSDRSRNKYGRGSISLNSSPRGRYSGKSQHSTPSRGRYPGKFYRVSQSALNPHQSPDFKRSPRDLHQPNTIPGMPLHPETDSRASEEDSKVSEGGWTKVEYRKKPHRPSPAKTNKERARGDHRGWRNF

[3] = Oral bioavailability in Sprague-Dawley rat at 10 mg/kg by HPLC/MS analysis; type: ADME, organism-based; conditions: in vivo
[4] = target: Tyrosine-protein kinase Blk (Homo sapiens, UniProt P51451); assay: Binding affinity to human BLK
Sequence of Tyrosine-protein kinase Blk (P51451 whole entry): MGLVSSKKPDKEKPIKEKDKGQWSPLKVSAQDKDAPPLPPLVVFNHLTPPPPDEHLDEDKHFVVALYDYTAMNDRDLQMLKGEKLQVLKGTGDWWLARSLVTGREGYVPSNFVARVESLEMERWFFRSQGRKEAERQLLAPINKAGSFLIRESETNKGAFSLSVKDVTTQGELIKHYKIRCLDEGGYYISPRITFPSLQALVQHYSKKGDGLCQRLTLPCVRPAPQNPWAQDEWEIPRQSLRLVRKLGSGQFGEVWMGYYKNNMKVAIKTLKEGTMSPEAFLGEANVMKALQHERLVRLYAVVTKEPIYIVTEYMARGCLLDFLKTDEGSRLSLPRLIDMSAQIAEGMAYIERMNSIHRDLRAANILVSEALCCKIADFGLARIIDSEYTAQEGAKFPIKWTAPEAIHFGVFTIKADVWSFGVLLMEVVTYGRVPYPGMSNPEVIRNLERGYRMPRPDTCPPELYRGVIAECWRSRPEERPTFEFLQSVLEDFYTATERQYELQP

[5] = target: T2, Tyrosine-protein kinase ABL1 (Homo sapiens, UniProt P00519); assay: Inhibition of human ABL1
T2 sequence (P00519 whole entry): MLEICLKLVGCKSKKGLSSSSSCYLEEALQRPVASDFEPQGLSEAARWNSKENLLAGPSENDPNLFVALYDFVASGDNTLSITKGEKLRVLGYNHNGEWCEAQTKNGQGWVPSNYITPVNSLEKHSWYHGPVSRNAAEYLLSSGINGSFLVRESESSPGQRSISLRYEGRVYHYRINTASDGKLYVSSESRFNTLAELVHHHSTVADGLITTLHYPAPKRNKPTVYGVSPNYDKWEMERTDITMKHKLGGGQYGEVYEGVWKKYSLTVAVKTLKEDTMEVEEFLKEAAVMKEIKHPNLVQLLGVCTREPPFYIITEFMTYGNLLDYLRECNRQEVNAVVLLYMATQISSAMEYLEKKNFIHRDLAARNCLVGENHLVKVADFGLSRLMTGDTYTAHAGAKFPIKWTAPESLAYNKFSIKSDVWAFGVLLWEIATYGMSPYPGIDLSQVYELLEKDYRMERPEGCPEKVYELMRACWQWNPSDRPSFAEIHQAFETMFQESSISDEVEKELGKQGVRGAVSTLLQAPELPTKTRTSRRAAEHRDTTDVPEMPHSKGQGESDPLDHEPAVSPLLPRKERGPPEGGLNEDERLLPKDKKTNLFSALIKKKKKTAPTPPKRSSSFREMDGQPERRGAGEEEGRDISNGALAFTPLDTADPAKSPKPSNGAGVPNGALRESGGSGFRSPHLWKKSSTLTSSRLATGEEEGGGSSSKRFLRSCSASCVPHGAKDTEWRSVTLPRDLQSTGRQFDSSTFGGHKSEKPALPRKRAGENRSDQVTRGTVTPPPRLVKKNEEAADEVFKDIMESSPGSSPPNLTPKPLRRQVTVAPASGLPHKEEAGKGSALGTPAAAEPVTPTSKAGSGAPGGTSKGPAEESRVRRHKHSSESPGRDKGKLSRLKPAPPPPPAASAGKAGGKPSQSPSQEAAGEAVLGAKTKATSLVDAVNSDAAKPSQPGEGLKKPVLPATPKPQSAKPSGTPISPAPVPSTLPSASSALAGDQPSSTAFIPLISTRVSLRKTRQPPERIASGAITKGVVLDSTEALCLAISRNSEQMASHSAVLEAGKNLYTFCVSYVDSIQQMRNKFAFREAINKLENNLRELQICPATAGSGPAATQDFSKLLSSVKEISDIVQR

[6] = target: Receptor-interacting serine/threonine-protein kinase 2 (Homo sapiens, UniProt O43353); assay: Binding affinity to human RIPK2
Sequence of Receptor-interacting serine/threonine-protein kinase 2 (O43353 whole entry): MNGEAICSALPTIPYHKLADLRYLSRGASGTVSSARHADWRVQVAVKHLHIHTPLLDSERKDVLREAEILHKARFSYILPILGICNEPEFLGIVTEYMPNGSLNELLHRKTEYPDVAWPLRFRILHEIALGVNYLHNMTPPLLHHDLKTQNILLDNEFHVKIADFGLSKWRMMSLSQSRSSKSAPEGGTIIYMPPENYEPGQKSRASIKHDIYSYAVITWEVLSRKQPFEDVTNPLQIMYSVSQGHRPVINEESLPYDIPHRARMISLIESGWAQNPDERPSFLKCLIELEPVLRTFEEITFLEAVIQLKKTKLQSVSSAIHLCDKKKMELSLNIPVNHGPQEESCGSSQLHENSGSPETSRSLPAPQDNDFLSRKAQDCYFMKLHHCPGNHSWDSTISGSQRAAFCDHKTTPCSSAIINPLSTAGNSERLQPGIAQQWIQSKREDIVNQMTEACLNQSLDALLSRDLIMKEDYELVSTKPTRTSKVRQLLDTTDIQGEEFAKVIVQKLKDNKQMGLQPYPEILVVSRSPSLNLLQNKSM

[7] = Half life in Sprague-Dawley rat at 10 mg/kg, po by HPLC/MS analysis; type: ADME, organism-based; conditions: in vivo
[8] = Cmax in Sprague-Dawley rat at 10 mg/kg, po by HPLC/MS analysis; type: ADME, organism-based; design: dose 10 mg/kg, route oral; conditions: in vivo
Rattus norvegicus [9] = assay: Anti-hypertrophic cardiomyopathy activity in SHR rat assessed as left ventricular weight level elevation at 10 mg/kg, po once daily for 8 weeks (reference value: 0.89 +/- 0.005 g); type: functional
[10] = Cmax in Sprague-Dawley rat at 2.5 mg/kg, iv by HPLC/MS analysis; type: ADME, organism-based; design: dose 2.5 mg/kg, route intravenous; conditions: in vivo
[11] = AUC (0 to infinity) in Sprague-Dawley rat at 10 mg/kg, po by HPLC/MS analysis; type: ADME, organism-based; design: dose 10 mg/kg, route oral, time infinity; conditions: in vivo
[12] = target: Receptor-type tyrosine-protein kinase FLT3 (Homo sapiens, UniProt P36888, F691L); assay: Binding affinity to human FLT3 F691L mutant
[13] = target: T1, Mitogen-activated protein kinase kinase kinase 20; assay: Binding affinity to ATP-binding site of human ZAK expressed in Escherichia coli by active site-dependent competition binding assay
[14] = AUC (0 to t) in Sprague-Dawley rat at 10 mg/kg, po by HPLC/MS analysis; type: ADME, organism-based; conditions: in vivo
[15] = Half life in Sprague-Dawley rat at 2.5 mg/kg, iv by HPLC/MS analysis; type: ADME, organism-based; conditions: in vivo
[16] = target: T1, Mitogen-activated protein kinase kinase kinase 20; assay: Binding affinity to human ZAK
LIM domain kinase 2 = LIM domain kinase 2 (Homo sapiens, UniProt P53671); assay: Binding affinity to human LIMK2
Sequence of LIM domain kinase 2 (P53671 whole entry, the tested form may be a part): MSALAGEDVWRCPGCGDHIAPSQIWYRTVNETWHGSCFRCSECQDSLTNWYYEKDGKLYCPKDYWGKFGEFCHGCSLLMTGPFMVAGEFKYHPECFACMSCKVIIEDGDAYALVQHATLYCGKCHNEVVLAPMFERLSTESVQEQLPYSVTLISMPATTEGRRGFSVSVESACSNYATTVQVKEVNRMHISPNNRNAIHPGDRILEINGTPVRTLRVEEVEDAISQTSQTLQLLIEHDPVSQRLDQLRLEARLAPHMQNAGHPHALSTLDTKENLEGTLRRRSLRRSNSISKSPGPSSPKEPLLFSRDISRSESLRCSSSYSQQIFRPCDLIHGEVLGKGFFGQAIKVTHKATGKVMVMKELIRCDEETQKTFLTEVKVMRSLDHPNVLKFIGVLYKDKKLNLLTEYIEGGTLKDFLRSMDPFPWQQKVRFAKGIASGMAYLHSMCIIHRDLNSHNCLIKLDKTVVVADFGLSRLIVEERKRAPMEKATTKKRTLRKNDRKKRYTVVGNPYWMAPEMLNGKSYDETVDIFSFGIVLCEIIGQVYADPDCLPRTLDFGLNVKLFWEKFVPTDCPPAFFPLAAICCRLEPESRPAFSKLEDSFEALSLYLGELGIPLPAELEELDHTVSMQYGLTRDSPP

[17] = target: Tyrosine-protein kinase Lck (Homo sapiens, UniProt P06239); assay: Binding affinity to human LCK
Sequence of Tyrosine-protein kinase Lck (P06239 whole entry): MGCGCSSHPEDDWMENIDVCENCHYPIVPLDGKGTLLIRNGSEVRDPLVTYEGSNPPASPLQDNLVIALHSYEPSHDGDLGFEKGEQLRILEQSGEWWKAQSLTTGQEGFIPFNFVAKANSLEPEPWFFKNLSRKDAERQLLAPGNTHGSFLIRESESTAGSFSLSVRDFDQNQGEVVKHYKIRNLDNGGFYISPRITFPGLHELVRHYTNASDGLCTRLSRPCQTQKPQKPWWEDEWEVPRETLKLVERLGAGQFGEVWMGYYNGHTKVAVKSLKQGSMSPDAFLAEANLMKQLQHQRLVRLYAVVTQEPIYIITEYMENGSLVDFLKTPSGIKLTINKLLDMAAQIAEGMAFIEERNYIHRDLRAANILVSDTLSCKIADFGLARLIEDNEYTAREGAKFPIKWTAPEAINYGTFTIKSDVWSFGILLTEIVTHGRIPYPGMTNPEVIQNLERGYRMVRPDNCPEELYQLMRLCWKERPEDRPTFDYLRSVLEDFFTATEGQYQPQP

[18] = Effect on ZAKalpha protein expression in rat H9C2 cells by Western blot analysis
LIM domain kinase 1 = LIM domain kinase 1 (Homo sapiens, UniProt P53667); assay: Binding affinity to human LIMK1
Rattus norvegicus [19] = assay: Anti-hypertrophic cardiomyopathy activity in SHR rat assessed as whole heart weight level elevation at 2.5 mg/kg, po once daily for 8 weeks (reference value: 1.23 +/- 0.006 g); type: functional
[20] = target: T2, Tyrosine-protein kinase ABL1; assay: Binding affinity to human ABL1
[21] = AUC (0 to t) in Sprague-Dawley rat at 2.5 mg/kg, iv by HPLC/MS analysis; type: ADME, organism-based; conditions: in vivo
Rattus norvegicus [22] = assay: Anti-hypertrophic cardiomyopathy activity in SHR rat assessed as whole heart weight level elevation at 10 mg/kg, po once daily for 8 weeks (reference value: 1.23 +/- 0.006 g); type: functional
Rattus norvegicus [23] = assay: Anti-hypertrophic cardiomyopathy activity in SHR rat assessed as left ventricular weight level elevation at 2.5 mg/kg, po once daily for 8 weeks (reference value: 0.89 +/- 0.005 g); type: functional
[24] = AUC (0 to infinity) in Sprague-Dawley rat at 2.5 mg/kg, iv by HPLC/MS analysis; type: ADME, organism-based; design: dose 2.5 mg/kg, route intravenous, time infinity; conditions: in vivo
[25] = Clearance in Sprague-Dawley rat at 2.5 mg/kg, iv by HPLC/MS analysis; type: ADME, organism-based; conditions: in vivo

Structure (SMILES): COc1n[nH]c2ncc(C#Cc3c(F)ccc(NS(=O)(=O)c4cccc(Cl)c4)c3F)cc12
pIC50 [1]: < 6.00 | pIC50 [2]: 7.83

Structure (SMILES): COc1n[nH]c2ncc(-c3nnc(-c4c(F)ccc(NS(=O)(=O)c5cccc(Cl)c5)c4F)o3)cc12
pIC50 [1]: < 6.00 | pIC50 [2]: 7.20

Structure (SMILES): Nc1ccc(-c2cn(-c3c(F)ccc(NS(=O)(=O)c4cccc(Cl)c4)c3F)nn2)cn1
pIC50 [1]: < 6.00 | pIC50 [2]: 7.34

Structure (SMILES): COc1n[nH]c2ncc(-c3cn(-c4cc(NS(=O)(=O)c5cccc(Cl)c5)ccc4F)nn3)cc12
pIC50 [1]: 6.48 | pIC50 [2]: 8.24

Structure (SMILES): COc1n[nH]c2ncc(-c3ncc(-c4c(F)ccc(NS(=O)(=O)c5cccc(Cl)c5)c4F)[nH]3)cc12
pIC50 [1]: < 6.00 | pIC50 [2]: 6.01

Structure (SMILES): COc1n[nH]c2ncc(-c3nc(-c4c(F)ccc(NS(=O)(=O)c5cccc(Cl)c5)c4F)no3)cc12
pIC50 [1]: < 6.00 | pIC50 [2]: 7.54

Structure (SMILES): COc1n[nH]c2ncc(-c3cn(-c4cccc(NS(=O)(=O)c5cccc(Cl)c5)c4)nn3)cc12
pIC50 [1]: < 6.00 | pIC50 [2]: 7.61

Structure (SMILES): COc1n[nH]c2ncc(-c3cn(-c4c(F)ccc(NC(=O)Nc5cccc(Cl)c5)c4F)nn3)cc12
pIC50 [1]: 7.29 | pIC50 [2]: 7.28

Structure (SMILES): Nc1ncc(-c2cn(-c3c(F)ccc(NS(=O)(=O)c4cccc(Cl)c4)c3F)nn2)cn1
pIC50 [1]: < 6.00 | pIC50 [2]: 8.05

Structure (SMILES): COc1n[nH]c2ncc(-c3cn(-c4c(Cl)ccc(NS(=O)(=O)c5cccc(Cl)c5)c4Cl)nn3)cc12
pIC50 [1]: 6.36 | pIC50 [2]: 6.38

More lines, main results first:

pIC50 [1]: 7.08 | pIC50 [2]: 7.07
Structure (SMILES): COc1n[nH]c2ncc(-c3cn(-c4c(F)ccc(NC(=O)Cc5cccc(Cl)c5)c4F)nn3)cc12

pIC50 [1]: 7.41 | pIC50 [2]: 8.42
Structure (SMILES): COc1n[nH]c2ncc(-c3cn(-c4c(F)ccc(NS(=O)(=O)c5ccccc5)c4F)nn3)cc12

pIC50 [1]: 6.07 | pIC50 [2]: 8.35
Structure (SMILES): COc1n[nH]c2ncc(-c3cn(-c4c(F)ccc(NS(=O)(=O)c5ccc6ccccc6c5)c4F)nn3)cc12

pIC50 [1]: 6.72 | pIC50 [2]: 8.16
Structure (SMILES): COc1n[nH]c2ncc(-c3cn(-c4c(F)ccc(NS(=O)(=O)c5cccc(C(C)C)c5)c4F)nn3)cc12

bioavailability [3]: 65.3% | pKd [4]: 6.72 | pIC50 [5]: 6.81 | pKd [6]: 7.24 | half-life [7]: 1.7 h | Cmax [8]: 16400 ng/mL | Cmax [10]: 34200 ng/mL | AUC(0-inf) [11]: 71800 ng·h/mL | pKd [12]: 6.28 | pKd [13]: 8.10 | AUC(0-t) [14]: 71600 ng·h/mL | half-life [15]: 1.6 h | pKd [16]: 8.10 | pKd (LIM domain kinase 2): 7.20 | pKd [17]: 6.80 | pIC50 [1]: < 6.00 | pIC50 [2]: 8.40 | pKd (LIM domain kinase 1): 7.64 | pKd [20]: 7.82 | AUC(0-t) [21]: 27400 ng·h/mL | AUC(0-inf) [24]: 27900 ng·h/mL | clearance [25]: 1.53 mL/min/kg
Structure (SMILES): COc1n[nH]c2ncc(-c3cn(-c4c(F)ccc(NS(=O)(=O)c5cccc(-c6ccccc6)c5)c4F)nn3)cc12
Activity (Rattus norvegicus [9]): 0.78 g | Activity [18]: Non-Toxic | Activity (Rattus norvegicus [19]): 1.18 g | Activity (Rattus norvegicus [22]): 1.13 g | Activity (Rattus norvegicus [23]): 0.82 g

pIC50 [1]: 6.34 | pIC50 [2]: 8.36
Structure (SMILES): COc1n[nH]c2ncc(-c3cn(-c4c(F)ccc(NS(=O)(=O)c5cccc(C)c5)c4F)nn3)cc12

pIC50 [1]: 6.90 | pIC50 [2]: 8.38
Structure (SMILES): COc1n[nH]c2ncc(-c3cn(-c4c(F)ccc(NS(=O)(=O)c5cccc6ccccc56)c4F)nn3)cc12

pIC50 [1]: 7.94 | pIC50 [2]: 7.27
Structure (SMILES): COc1n[nH]c2ncc(-c3cn(-c4c(F)ccc(NC(=O)c5cccc(Cl)c5)c4F)nn3)cc12

pIC50 [1]: 6.70 | pIC50 [2]: 8.72
Structure (SMILES): COc1n[nH]c2ncc(-c3cn(-c4c(F)ccc(NS(=O)(=O)c5cccc(Cl)c5)c4F)nn3)cc12

pIC50 [1]: 6.57 | pIC50 [2]: 8.64
Structure (SMILES): COc1cccc(S(=O)(=O)Nc2ccc(F)c(-n3cc(-c4cnc5[nH]nc(OC)c5c4)nn3)c2F)c1

pIC50 [1]: 6.56 | pIC50 [2]: 8.68
Structure (SMILES): COc1n[nH]c2ncc(-c3cn(-c4c(F)ccc(NS(=O)(=O)c5cccc(Br)c5)c4F)nn3)cc12

pIC50 [1]: 6.10 | pIC50 [2]: 8.52
Structure (SMILES): COc1n[nH]c2ncc(-c3cn(-c4cccc(NS(=O)(=O)c5cccc(Cl)c5)c4F)nn3)cc12

pIC50 [1]: 6.33 | pIC50 [2]: 8.48
Structure (SMILES): COc1n[nH]c2ncc(-c3cn(-c4c(F)ccc(NS(=O)(=O)c5cccc(C#N)c5)c4F)nn3)cc12
